The nature of data set [1]: Comparative test on precipitation stability in pH 6.8 buffer. Type of data set: physicochemical. The conditions noted are these: 10 mg/ml in buffer solution of pH 6.8, stored at 37° C. for 24 hours.
A short description of data set [2]: Comparative test on liquid-phase stability (HPLC, degradation product of formula 4). Format: physicochemical. The note with it: for Concentration (%) of degradation product (compound of the formula 4), Initial / Concentration (%) of degradation product (compound of the formula 4), 1 day (24 hours) elapsed: 20 mg/ml.
The nature of data set [3]: Comparative test on solid-phase stability (Karl Fischer, HPLC). Type of data set: physicochemical. The note with it: for Total impurities (%), 1 month elapsed / Total impurities (%), Initial: HPLC area %; for Total impurities (%), 1 month elapsed / Moisture (%), 1 month elapsed: PE-bag, 75% RH, one month; for Moisture (%), 1 month elapsed / Moisture (%), Initial: Karl Fischer.

Data set [4] is described as follows: Water solubility at room temperature of 1:1 co-crystals of the compound of the formula 1 with co-crystal formers. The conditions noted are these: co-crystal at 1:1 molar ratio with compound of the formula 1.
The nature of data set [5]: Comparative test on solubility of amorphous acid addition salts (supersaturation method). The note with it: room temperature, solubility of acid addition salt per se, not converted to free base; for solubility: water, thermodynamic from solid, Water solubility.

Like-named read-outs stand apart in the source and are kept apart here.

What is called solubility is the concentration that dissolves in the medium under given conditions.

As to Fumaric acid, the “Soil precipitation or not” value in data set [1] is given as “Precipitated”. The “Soil precipitation or not” value in data set [1] (listed as fumaric acid) is reported as “a solid was precipitated”. In data set [2] (20 mg/ml in purified water, stirred at 40° C.), the “physical state of the solution (homogenous liquid-phase state or gel)” value is “formed a sticky gel”. For the same compound, in data set [3], the “Concentration of degradation products (%), 1 month elapsed” value (shortened to “Concentration … (%), 1 month elapsed”) is listed as 0.12%; the “Concentration of degradation products (%), Initial” value (from here on “Concentration … (%), Initial”) was 0.09%; the “Total impurities (%), 1 month elapsed” value turned out to be 0.43%; the “Total impurities (%), Initial” value is recorded as 0.14%. Besides, in data set [3], the “Moisture (%), 1 month elapsed” value is recorded as 0.3% and the “Moisture (%), Initial” value was found to be 0.1%.
Turning to `O=C1CC[C@@H](C(=O)O)N1` [L-pyroglutamic acid], in data set [1], the “Soil precipitation or not” value is on record as “a homogenous solution was maintained”. For the same compound, in data set [2], the “Concentration (%) of degradation product (compound of the formula 4), Initial” value is given as 0.02% and the “Concentration (%) of degradation product (compound of the formula 4), 1 day (24 hours) elapsed” value is given as 0.05%. In addition, in data set [3], the “Concentration … (%), Initial” value worked out at 0.02%; the “Total impurities (%), 1 month elapsed” value amounted to 0.07%; the “Total impurities (%), Initial” value is 0.07%; the “Moisture (%), 1 month elapsed” value is given as 0.1%. Further, the “Moisture (%), Initial” value in data set [3] came to 0.1%. The “Concentration … (%), 1 month elapsed” value in data set [3] (1 month) was 0.02%.
Regarding `NCCCC[C@H](N)C(=O)O` [L-Lysine], the Water-solubility in data set [4] worked out at 8000 µg/mL.
As to `Cc1nc2c(O[C@H]3CCOc4cc(F)cc(F)c43)cc(C(=O)N(C)C)cc2[nH]1`, in data set [1], the “Soil precipitation or not” value is “a homogenous solution was maintained”. For the same compound, in data set [2], the “Concentration (%) of degradation product (compound of the formula 4), Initial” value is 0.03% and the “Concentration (%) of degradation product (compound of the formula 4), 1 day (24 hours) elapsed” value is 0.07%. In addition, in data set [3], the “Concentration … (%), Initial” value was 0.04%; the “Total impurities (%), 1 month elapsed” value worked out at 0.06%; the “Total impurities (%), Initial” value is on record as 0.06%; the “Moisture (%), 1 month elapsed” value amounted to 0.1%. For the same compound, in data set [3], the “Moisture (%), Initial” value stood at 0.1%. Further, the “Concentration … (%), 1 month elapsed” value in data set [3] (1 month) was 0.04%. Further, the solubility in data set [5] is not below 50000 µg/mL.
Regarding `C[C@H](N)C(=O)O` [L-Alanine], in data set [4], the Water-solubility came to 4000 µg/mL.
With `Cc1ccc(S(=O)(=O)O)cc1` [p-toluenesulfonic acid], the Water solubility in data set [5] was determined as 27000 µg/mL.
Take `O=S(=O)(O)c1cccc2c(S(=O)(=O)O)cccc12` [1.5-naphinalenedisulfonic acid]: in data set [5], the Water solubility stood at 2500 µg/mL.
With `CC(C)[C@H](N)C(=O)O` [L-Valine], in data set [4], the Water-solubility was determined as 3000 µg/mL.
On to `Cc1nc2c(OC3CCOc4cc(F)cc(F)c43)cc(C(=O)N(C)C)cc2[nH]1` (centres unmarked) [Amorphous free base], for which the solubility in data set [5] is 3000 µg/mL.
Take `CC(C)C[C@H](N)C(=O)O` [L-leucine]: the Water-solubility in data set [4] worked out at 12000 µg/mL.

(Values after patent US11535610B2, “Acid addition salts of benzimidazole derivative” (HK INNO.N CORPORATION, priority 2016, dated 2022).)
